Assay results as given in patent US12030878B2 (BRISTOL-MYERS SQUIBB COMPANY, priority 2017, dated 2024).

Assays:
Type in all cases: cell-based
[1] = target: T1, human TLR7 (Homo sapiens, UniProt Q9NYK1); test: TLR7 inhibition reporter assay (HEK-Blue SEAP); details: HEK-Blue cells overexpressing human TLR7, stimulated with gardiquimod 7.5 μM, 22 hour incubation
T1 construct: host or cells: HEK-Blue cells
T1 sequence (Q9NYK1 27-1049): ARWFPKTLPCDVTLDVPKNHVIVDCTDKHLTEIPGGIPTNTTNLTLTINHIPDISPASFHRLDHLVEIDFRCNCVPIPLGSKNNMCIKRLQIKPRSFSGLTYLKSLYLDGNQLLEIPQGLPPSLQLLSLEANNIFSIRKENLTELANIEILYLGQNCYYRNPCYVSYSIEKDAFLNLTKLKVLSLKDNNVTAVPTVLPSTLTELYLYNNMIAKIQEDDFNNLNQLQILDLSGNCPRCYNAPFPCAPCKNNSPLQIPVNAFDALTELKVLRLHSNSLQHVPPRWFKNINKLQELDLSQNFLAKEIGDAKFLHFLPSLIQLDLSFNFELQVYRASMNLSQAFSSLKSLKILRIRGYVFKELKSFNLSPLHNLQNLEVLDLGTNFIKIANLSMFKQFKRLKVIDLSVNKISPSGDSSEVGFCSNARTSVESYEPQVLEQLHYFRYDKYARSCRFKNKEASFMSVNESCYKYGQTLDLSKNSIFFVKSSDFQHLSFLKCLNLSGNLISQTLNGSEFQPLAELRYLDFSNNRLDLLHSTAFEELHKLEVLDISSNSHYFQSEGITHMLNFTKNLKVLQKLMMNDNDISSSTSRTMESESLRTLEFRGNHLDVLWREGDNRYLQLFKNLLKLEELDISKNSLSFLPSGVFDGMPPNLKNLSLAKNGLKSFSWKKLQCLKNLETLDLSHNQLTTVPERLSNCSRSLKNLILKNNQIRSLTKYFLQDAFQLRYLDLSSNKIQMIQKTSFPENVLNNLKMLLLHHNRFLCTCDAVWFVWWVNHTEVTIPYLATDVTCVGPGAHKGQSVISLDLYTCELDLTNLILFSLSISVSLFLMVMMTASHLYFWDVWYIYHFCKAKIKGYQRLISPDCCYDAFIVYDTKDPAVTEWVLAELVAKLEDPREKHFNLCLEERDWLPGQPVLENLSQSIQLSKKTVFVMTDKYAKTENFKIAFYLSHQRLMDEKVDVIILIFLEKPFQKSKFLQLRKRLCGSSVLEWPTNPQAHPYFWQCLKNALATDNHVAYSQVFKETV
Procedure, shortened: (§1)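 Test compounds, final 0.05 nM–50 μM, pre-treat HEK-Blue human TLR7, TLR8 or TLR9 reporter cells before agonist addition (TLR8 R848 15.9 μM; TLR7 gardiquimod 7.5 μM; TLR9 ODN2006 5 nM). Incubation runs 22 h, 37 °C. SEAP detection gives percent inhibition against DMSO and reference-inhibitor controls.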

[2] = target: T2, human TLR9 (Homo sapiens, UniProt Q9NR96); test: TLR9 inhibition reporter assay (HEK-Blue SEAP); details: HEK-Blue cells overexpressing human TLR9, stimulated with ODN2006 5 nM, 22 hour incubation
T2 construct: host or cells: HEK-Blue cells
T2 sequence (Q9NR96 26-1032): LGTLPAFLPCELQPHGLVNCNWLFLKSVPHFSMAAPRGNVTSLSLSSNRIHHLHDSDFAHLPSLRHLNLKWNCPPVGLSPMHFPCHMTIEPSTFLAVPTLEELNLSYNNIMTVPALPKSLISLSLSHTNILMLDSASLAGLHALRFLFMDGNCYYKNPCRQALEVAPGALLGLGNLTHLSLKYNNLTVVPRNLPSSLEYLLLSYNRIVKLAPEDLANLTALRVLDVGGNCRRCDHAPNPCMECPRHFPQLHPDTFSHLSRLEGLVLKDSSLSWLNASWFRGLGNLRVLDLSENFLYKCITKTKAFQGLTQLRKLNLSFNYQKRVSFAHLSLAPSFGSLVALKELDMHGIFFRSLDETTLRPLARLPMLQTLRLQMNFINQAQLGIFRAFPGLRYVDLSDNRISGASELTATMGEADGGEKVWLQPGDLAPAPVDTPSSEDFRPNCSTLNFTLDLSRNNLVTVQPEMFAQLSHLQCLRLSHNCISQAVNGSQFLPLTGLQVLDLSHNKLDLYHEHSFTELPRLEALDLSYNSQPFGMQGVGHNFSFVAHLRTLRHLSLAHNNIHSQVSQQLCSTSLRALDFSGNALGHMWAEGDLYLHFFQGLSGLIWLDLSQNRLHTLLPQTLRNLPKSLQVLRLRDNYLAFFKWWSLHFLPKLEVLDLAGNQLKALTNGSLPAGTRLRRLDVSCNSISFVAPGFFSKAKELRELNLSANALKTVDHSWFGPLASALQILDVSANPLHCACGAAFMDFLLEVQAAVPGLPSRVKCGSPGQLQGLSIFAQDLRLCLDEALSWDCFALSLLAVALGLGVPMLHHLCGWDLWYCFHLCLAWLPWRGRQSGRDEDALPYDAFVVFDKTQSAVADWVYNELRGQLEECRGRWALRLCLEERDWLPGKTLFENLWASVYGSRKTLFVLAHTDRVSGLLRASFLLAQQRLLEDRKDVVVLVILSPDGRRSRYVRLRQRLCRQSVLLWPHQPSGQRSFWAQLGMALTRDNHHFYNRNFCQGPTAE
Procedure, shortened: as §1

[3] = target: T3, human TLR8 (Homo sapiens, UniProt Q9NR97); test: TLR8 inhibition reporter assay (HEK-Blue SEAP); details: HEK-Blue cells overexpressing human TLR8, stimulated with R848 15.9 μM, 22 hour incubation
T3 construct: host or cells: HEK-Blue cells
T3 sequence (Q9NR97 27-1041): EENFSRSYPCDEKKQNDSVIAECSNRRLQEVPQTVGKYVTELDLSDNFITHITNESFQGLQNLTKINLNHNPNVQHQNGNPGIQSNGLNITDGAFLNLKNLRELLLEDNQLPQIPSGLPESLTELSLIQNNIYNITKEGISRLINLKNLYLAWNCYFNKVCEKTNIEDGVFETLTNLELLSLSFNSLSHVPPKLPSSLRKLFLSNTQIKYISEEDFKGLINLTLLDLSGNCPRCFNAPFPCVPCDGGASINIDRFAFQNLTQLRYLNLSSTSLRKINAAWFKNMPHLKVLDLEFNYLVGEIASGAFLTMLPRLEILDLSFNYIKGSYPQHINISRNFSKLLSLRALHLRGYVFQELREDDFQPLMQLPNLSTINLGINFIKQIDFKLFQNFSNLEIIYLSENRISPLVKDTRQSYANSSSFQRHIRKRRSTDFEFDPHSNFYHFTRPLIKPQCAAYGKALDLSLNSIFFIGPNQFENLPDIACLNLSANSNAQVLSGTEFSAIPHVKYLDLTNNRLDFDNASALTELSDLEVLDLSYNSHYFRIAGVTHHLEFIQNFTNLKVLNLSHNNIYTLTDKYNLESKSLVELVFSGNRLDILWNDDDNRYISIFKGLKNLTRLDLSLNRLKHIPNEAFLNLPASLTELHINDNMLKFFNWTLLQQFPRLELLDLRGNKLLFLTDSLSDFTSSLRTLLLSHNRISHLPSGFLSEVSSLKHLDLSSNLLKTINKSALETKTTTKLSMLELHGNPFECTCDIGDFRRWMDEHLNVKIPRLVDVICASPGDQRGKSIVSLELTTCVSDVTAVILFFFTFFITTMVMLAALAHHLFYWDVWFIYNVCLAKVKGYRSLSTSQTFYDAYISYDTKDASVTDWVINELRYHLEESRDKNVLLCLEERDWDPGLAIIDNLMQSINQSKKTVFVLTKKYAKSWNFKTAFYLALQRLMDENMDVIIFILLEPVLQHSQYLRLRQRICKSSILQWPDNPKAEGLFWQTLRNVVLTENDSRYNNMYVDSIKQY
Procedure, shortened: as §1

Row | SMILES | IC50 [1] [nM] | IC50 [2] [nM] | IC50 [3] [nM]
1 | CCc1c(-c2ccnc(C)c2)[nH]c2ccc(OCC3CCN(C)CC3)cc12 [Example 183, 3-ethyl-5-((1-methylpiperidin-4-yl)methoxy)-2-(2-methylpyridin-4-yl)-1H-indole] | 131 | 512 | 12
2 | Cc1cc(-c2[nH]c3ccc(OCC4CCN(C)CC4)cc3c2C(C)C)ccn1 [Example 188, 3-isopropyl-5-((1-methylpiperidin-4-yl)methoxy)-2-(2-methylpyridin-4-yl)-1H-indole] | 44.7 | 1540 | 2.1
3 | CCc1c(-c2ccnc(C)c2)[nH]c2ccc(OC3CCN(C)CC3)cc12 [Example 189, 3-ethyl-5-((1-methylpiperidin-4-yl)oxy)-2-(2-methylpyridin-4-yl)-1H-indole] | 166 | 1080 | 6.5
4 | CCc1c(-c2ccnc(C)c2)[nH]c2ccc(OCCN3CCCC3)cc12 [Example 192, 3-ethyl-2-(2-methylpyridin-4-yl)-5-(2-(pyrrolidin-1-yl)ethoxy)-H-indole] | 1030 | 774 | 50.8
5 | Cc1cc(-c2[nH]c3ccc(O[C@@H]4CCN(C)C4)cc3c2C(C)C)ccn1 [Example 193, (R)-3-isopropyl-2-(2-methylpyridin-4-yl)-5-((1-methylpyrrolidin-3-yl)oxy)-1H-indole] | 15.1 | 884 | 6.4
6 | COCCN1CCC(COc2ccc3[nH]c(-c4ccnc(C)c4)c(C(C)C)c3c2)C1 (stereo not drawn) [Example 194, 3-isopropyl-5-((1-(2-methoxyethyl)pyrrolidin-3-yl)methoxy)-2-(2-methylpyridin-4-yl)-1H-indole] | 113 | 1460 | 13.7
7 | Cc1cc(-c2[nH]c3ccc(OC4CCN(C5CCN(C(C)C)CC5)CC4)cc3c2C(C)C)ccn1 [Example 195, 3-isopropyl-5-((1′-isopropyl-[1,4′-bipiperidin]-4-yl)oxy)-2-(2-methylpyridin-4-yl)-1H-indole] | 6 | 58 | 0.6
8 | Cc1cc(-c2[nH]c3ccc(OC4CCN(CC(=O)O)CC4)cc3c2C(C)C)cc(C)n1 [Example 197, 2-(4-((2-(2,6-dimethylpyridin-4-yl)-3-isopropyl-1H-indol-5-yl)oxy)piperidin-1-yl)acetic acid] | 679 | 25200 | 462

Further molecules by falling IC50 [1], results first:

Row | IC50 [1] [nM] | IC50 [2] [nM] | IC50 [3] [nM] | SMILES
9 | 954 | 1220 | 118 | CCc1c(-c2ccnc(C)c2)[nH]c2ccc(OC3CCN(C(C)C)C3)cc12 (stereo not drawn) [Example 190, 3-ethyl-5-((1-isopropylpyrrolidin-3-yl)oxy)-2-(2-methylpyridin-4-yl)-1H-indole]
10 | 400 | 566 | 19.2 | CCc1c(-c2ccnc(C)c2)[nH]c2ccc(O[C@H]3CCNC3)cc12 [Example 182, (S)-3-ethyl-2-(2-methylpyridin-4-yl)-5-(pyrrolidin-3-yloxy)-1H-indole]
11 | 84.2 | 2810 | 5.8 | Cc1cc(-c2[nH]c3ccc(OCC4CCN(C(C)C)CC4)cc3c2C(C)C)ccn1 [Example 191, 3-isopropyl-5-((1-isopropylpiperidin-4-yl)methoxy)-2-(2-methylpyridin-4-yl)-1H-indole]
12 | 70.7 | 2670 | 3.1 | Cc1cc(-c2[nH]c3ccc(OC4CCN(C(C)C)CC4)cc3c2C(C)C)ccn1 [Example 186, 3-isopropyl-5-((1-isopropylpiperidin-4-yl)oxy)-2-(2-methylpyridin-4-yl)-1H-indole]
13 | 51.9 | 5300 | 54.6 | Cc1cc(-c2[nH]c3ccc(OC4CCC(OC5CCNCC5)CC4)cc3c2C(C)C)ccn1 (stereo not drawn) [Example 184, 3-isopropyl-2-(2-methylpyridin-4-yl)-5-((4-(piperidin-4-yloxy)cyclohexyl)oxy)-1H-indole]
14 | 50.2 | 2990 | 22.6 | Cc1cc(-c2[nH]c3ccc(OC4CCC(OC5CCNCC5)CC4)cc3c2C(C)C)ccn1 (stereo not drawn) [Example 185, 3-isopropyl-2-(2-methylpyridin-4-yl)-5-((4-(piperidin-4-yloxy)cyclohexyl)oxy)-1H-indole]
15 | 9.9 | 1420 | 11.8 | Cc1cc(-c2[nH]c3ccc(OC4CCN(C(=O)CN(C)C)CC4)cc3c2C(C)C)ccn1 [Example 196, 2-(dimethylamino)-1-(4-((3-isopropyl-2-(2-methylpyridin-4-yl)-1H-indol-5-yl)oxy)piperidin-1-yl)ethan-1-one]
